Inconclusive results and toxic doses are left out. Rule for the calls: active = survival T/C of 150% or more; inactive = T/C below 125% in these data.
System: P388 leukemia ip, CD2F1 mice, survival T/C
Test: NCI In Vivo Anticancer Drug Screen. Data for tumor model P388 Leukemia (intraperitoneal) in CD2F1 (CDF1) mice
Conditions: endpoint: median survival time, higher = longer survival
Outline: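 Mice carrying the transplanted tumor received test compound or vehicle. Survival was recorded in each group, and the value is the treated-group measurement divided by that of the vehicle-treated control group.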

[1] = dose: 50.0 mg/kg/injection, schedule: Q01DX009 (ip), vehicle: saline with Tween-80
[2] = dose: 100.0 mg/kg/injection, schedule: Q01DX009 (ip), vehicle: saline with Tween-80
[3] = dose: 25.0 mg/kg/injection, schedule: Q01DX005 (ip), vehicle: Klucel (hydroxypropylcellulose) (HPC)
[4] = dose: 50.0 mg/kg/injection, schedule: Q01DX005 (ip), vehicle: Klucel (hydroxypropylcellulose) (HPC)
[5] = dose: 100.0 mg/kg/injection, schedule: Q01DX005 (ip), vehicle: Klucel (hydroxypropylcellulose) (HPC)
[6] = dose: 200.0 mg/kg/injection, schedule: Q01DX005 (ip), vehicle: Klucel (hydroxypropylcellulose) (HPC)
[7] = dose: 100.0 mg/kg/injection, schedule: Q04DX002 (ip), vehicle: saline with Tween-80
[8] = dose: 200.0 mg/kg/injection, schedule: Q04DX002 (ip), vehicle: saline with Tween-80

Measured: T/C

COc1cc(Br)cc(C(=O)O)c1OC
inactive: dose: 25.0 mg/kg/injection, schedule: Q01DX009 (ip), vehicle: other 101 % of control | dose: 50.0 mg/kg/injection, schedule: Q01DX009 (ip), vehicle: other 106 % of control | [1] 93 % of control | dose: 100.0 mg/kg/injection, schedule: Q01DX009 (ip), vehicle: other 102 % of control | [2] 93 % of control | dose: 200.0 mg/kg/injection, schedule: Q01DX009 (ip), vehicle: saline with Tween-80 100 % of control | dose: 400.0 mg/kg/injection, schedule: Q01DX009 (ip), vehicle: saline with Tween-80 102 % of control

C[P+](CCOC(=O)NC(Cc1ccccc1)C(=O)O)(c1ccccc1)c1ccccc1 (configuration not stated)
inactive: [1] 94 % of control | [2] 103 % of control

O=[N+]([O-])c1cc2ccccc2c(O)c1O
inactive: dose: 12.5 mg/kg/injection, schedule: Q01DX009 (ip), vehicle: saline with Tween-80 95 % of control | dose: 25.0 mg/kg/injection, schedule: Q01DX009 (ip), vehicle: saline with Tween-80 104 % of control | [1] 118 % of control

O=C1CC2(CCc3ccccc32)C(=O)N1CN1CCN(c2ccccn2)CC1 (configuration not stated)
inactive: dose: 50.0 mg/kg/injection, schedule: Q01DX005 (ip), vehicle: saline with Tween-80 106 % of control | dose: 100.0 mg/kg/injection, schedule: Q01DX005 (ip), vehicle: saline with Tween-80 109 % of control | dose: 200.0 mg/kg/injection, schedule: Q01DX005 (ip), vehicle: saline with Tween-80 92 % of control

CCCCC(C(=O)OCC)/C(C)=N\NC(N)=S (configuration not stated)
inactive: dose: 60.0 mg/kg/injection, schedule: Q01DX005 (ip), vehicle: Klucel (hydroxypropylcellulose) (HPC) 100 % of control | dose: 120.0 mg/kg/injection, schedule: Q01DX005 (ip), vehicle: Klucel (hydroxypropylcellulose) (HPC) 99 % of control | dose: 240.0 mg/kg/injection, schedule: Q01DX005 (ip), vehicle: Klucel (hydroxypropylcellulose) (HPC) 98 % of control

O=C1/C(=c2\c3ccccc3n3c(=O)c4ccccc4nc23)Nc2ccccc21
inactive: [3] 92 % of control | [4] 91 % of control | [5] 91 % of control

CC(=O)Nc1ccc2c(c1)nc(-c1ccccn1)n2CCc1ccccn1
inactive: [3] 103 % of control | [4] 102 % of control | [5] 102 % of control | [6] 102 % of control

N#CC(CCCCl)(c1ccccc1)c1ccccc1
inactive: dose: 100.0 mg/kg/injection, schedule: Q04DX002 (ip), vehicle: Klucel (hydroxypropylcellulose) (HPC) 107 % of control | dose: 200.0 mg/kg/injection, schedule: Q04DX002 (ip), vehicle: Klucel (hydroxypropylcellulose) (HPC) 108 % of control | dose: 400.0 mg/kg/injection, schedule: Q04DX002 (ip), vehicle: Klucel (hydroxypropylcellulose) (HPC) 108 % of control

CCCCc1c2cnccc2c(CCCC)c2c1[nH]c1ccccc12
inactive: dose: 25.0 mg/kg/injection, schedule: Q04DX002 (ip), vehicle: saline with Tween-80 105 % of control | dose: 50.0 mg/kg/injection, schedule: Q04DX002 (ip), vehicle: saline with Tween-80 100 % of control | [7] 96 % of control | [8] 91 % of control

COc1ccc2c(=O)cc(-c3ccc4ccccc4n3)oc2c1OC
inactive: [4] 98 % of control | [5] 95 % of control | [6] 90 % of control

CC1c2ccccc2NC(=O)N1N1CCOCC1 (configuration not stated)
inactive: [4] 96 % of control | [5] 93 % of control | [6] 97 % of control

CC1=C(C)SC(=C2SC=CS2)S1
inactive: [7] 102 % of control | [8] 92 % of control | dose: 400.0 mg/kg/injection, schedule: Q04DX002 (ip), vehicle: saline with Tween-80 95 % of control

CCCCN=C(N)N/N=C(\C)c1ccc(-c2ccccc2)cc1
inactive: dose: 1.25 mg/kg/injection, schedule: Q04DX002 (ip), vehicle: saline with Tween-80 102 % of control | dose: 2.5 mg/kg/injection, schedule: Q04DX002 (ip), vehicle: saline with Tween-80 104 % of control | dose: 5.0 mg/kg/injection, schedule: Q04DX002 (ip), vehicle: saline with Tween-80 104 % of control

CC1(C)C(=O)c2cc(Cl)ccc2C1(C)C
inactive: [4] 103 % of control | [5] 102 % of control | [6] 97 % of control
